Assay results: article PMC6445162, “Effects of NS2B-NS3 protease and furin inhibition on West Nile and Dengue virus replication” (Journal of Enzyme Inhibition and Medicinal Chemistry, 2017)
Peptide text beside a SMILES is read from it.

B1: Phac-Lys-Lys-Arg-Gly-Gly-NH2 (peptide)
peptide: KKRGG
HELM: PEPTIDE1{[O=C(Cc1ccccc1)[*:2]].K.K.R.G.G.[am]}$$$$V2.0
SMILES: N=C(N)NCCC[C@H](NC(=O)[C@H](CCCCN)NC(=O)[C@H](CCCCN)NC(=O)Cc1ccccc1)C(=O)NCC(=O)NCC(N)=O

Assays:
[1] = target: T1, DENV serotype 2 NS2B-NS3 protease (Dengue virus type 2, UniProt P14340); assay: Enzyme kinetic inhibition of DENV-2 NS2B-NS3 protease construct; format: biochemical, Dengue virus serotype 2; settings: for inhibition at 100 µM: 100 μM inhibitor in the presence of 125 μM substrate, read-out: % Inhib. (DENV)
T1 construct: The proteolytic activity of WNV and DENV is located in the N-terminal part of its NS3 protein; made in house
Experimental: (§1) All measurements were performed at room temperature in black flat-bottom 96-well plates (Nunc, Langenselbold, Germany) using microplate readers (Tecan Safire^2, λex = 380 nm and λem = 460 nm, Tecan Group Ltd., Männedorf, Switzerland or Fluoroskan Ascent type 374, λex = 355 nm and λem = 460 nm; Thermo Fisher Scientific, Vantaa, Finland). The assays with the flavivirus protease constructs were performed with 125 μl buffer (100 mM Tris pH 8.5 containing 20% glycerol, 0.01% Triton X-100, and the inhibitor), 50 μl substrate solution, and were started by addition of 25 μl enzyme solution (total assay volume 200 μl).
(§2) The DENV serotype 2 NS2B-NS3 protease construct was prepared from an identical clone as described by D’Arcy et al.[26] The purification of the protease was carried out in a buffer with high ion-strength and low pH value, in the absence of glycerol (20 mM Bis-Tris, 500 mM NaCl, pH 6.3), in order to prevent autolysis of the enzyme. Purification was performed by using a 5 ml HisTrapTM FF column (GE Healthcare) and subsequently, a HiLoad 16/60 SuperdexTM 75 column (GE Healthcare). The assays with the DENV-2 NS2B-NS3^pr° (∼39 nM in well) were performed with the substrate Phac-Lys-Arg-Arg-AMC ×3 TFA (125 µM, 62.5 µM and 31.25 µM in assay, KM = 60 µM). All Ki values were obtained from Dixon plots[27] and are the average of at least two measurements. Due to the weak potency of most compounds against the DENV-2 NS2B-NS3 protease construct, only the percentage of inhibition at a constant inhibitor concentration of 100 µM in the presence of 125 µM substrate was determined.

WNV NS2B-NS3 protease = target: T2, WNV NS2B-NS3 protease (West Nile virus, UniProt P06935); assay: Enzyme kinetic inhibition of WNV NS2B-NS3 protease construct (Dixon plot); format: biochemical; settings: covalently linked WNV NS2B-NS3 construct; substrate Phac-Leu-Lys-Lys-Arg-AMC; Dixon plots, average of at least two measurements
T2 construct: WNV NS2B 40-amino acid cofactor together with the NS3 protease domain
Experimental: as §1
For measurements with the covalently linked WNV NS2B-NS3 protease construct (∼4 nM in assay) the substrate Phac-Leu-Lys-Lys-Arg-AMC ×3 TFA (50 µM, 100 µM and 200 µM in assay, KM = 47.5 µM) was used, as described previously.
as §2

[2] = target: covalently linked WNV NS2B-NS3 protease construct (West Nile virus) (UniProt P06935); assay: enzyme inhibition kinetics (Ki from Dixon plots, fluorogenic substrate); WNV NS2B-NS3 construct ~4 nM in assay; substrate Phac-Leu-Lys-Lys-Arg-AMC 50, 100 and 200 µM (KM = 47.5 µM); 100 mM Tris pH 8.5, 20% glycerol, 0.01% Triton X-100; room temperature; Ki the average of at least two measurements

| Molecule | inhibition at 100 µM [1] [%] | Ki (WNV NS2B-NS3 protease) [µM] | Ki [2] [µM] | further results |
| --- | --- | --- | --- | --- |
| N=C(N)NCCC[C@H](NC(=O)[C@H](CCCCN)NC(=O)[C@H](CCCCN)NC(=O)Cc1ccccc1)C(N)=O [inhibitor 27] (HELM PEPTIDE1{[O=C(Cc1ccccc1)[*:2]].K.K.R.[am]}$$$$V2.0) | 20.8 | 2.47 | – | – |
| α-Cyclohexylglycine-Lys-Lys-Arg-NH2 (peptide) | – | – | 26.3 | – |
| N=C(N)NCCC[C@H](NC(=O)[C@H](CCCCN)NC(=O)[C@H](CCCCN)NC(=O)Cc1ccc(CN)cc1)C(N)=O [inhibitor 35] | 31.7 | 0.38 | – | – |
| Phac-Lys-Lys-Arg-Gaba-NH2 (peptide) | – | – | 15 | – |
| Phac-Lys-Lys-Arg-Ala-NH2 (peptide) | – | – | 25 | – |
| C[C@@H](NC(=O)[C@H](CCCNC(=N)N)NC(=O)[C@H](CCCCN)NC(=O)[C@H](CCCCN)NC(=O)Cc1ccccc1)C(N)=O [inhibitor 20] (HELM PEPTIDE1{[O=C(Cc1ccccc1)[*:2]].K.K.R.[dA].[am]}$$$$V2.0) | 12 | 75 | – | – |
| N=C(N)NCCC[C@H](NC(=O)[C@H](CCCCN)NC(=O)[C@H](CCCCN)NC(=O)Cc1cccc(CN)c1)C(N)=O [inhibitor 36] | 12.4 | 0.36 | – | – |
| C[C@H](NC(=O)[C@H](CCCNC(=N)N)NC(=O)[C@H](CCCCN)NC(=O)[C@H](CCCCN)NC(=O)Cc1ccccc1)C(N)=O [inhibitor 19] (HELM PEPTIDE1{[O=C(Cc1ccccc1)[*:2]].K.K.R.A.[am]}$$$$V2.0) | 5.6 | 25 | – | – |
| Phac-Lys-Lys-Arg-Val-NH2 (peptide) | – | – | 105 | – |
| N=C(N)NCCC[C@H](NC(=O)[C@H](CCCCN)NC(=O)[C@H](CCCCN)NC(=O)Cc1ccccc1)C(=O)N1CCC[C@H]1C(N)=O [inhibitor 23] (HELM PEPTIDE1{[O=C(Cc1ccccc1)[*:2]].K.K.R.P.[am]}$$$$V2.0) | 5.2 | 200 | – | – |
| N=C(N)NCCC[C@H](NC(=O)[C@H](CCCCN)NC(=O)[C@H](CCCCN)NC(=O)[C@@H](N)C12CC3CC(CC(C3)C1)C2)C(N)=O [inhibitor 44] (HELM PEPTIDE1{[N[C@H](C(=O)[*:2])C12CC3CC(CC(C3)C1)C2].K.K.R.[am]}$$$$V2.0) | 14.6 | 70 | – | – |
| N=C(N)NCCC[C@H](NC(=O)[C@H](CCCCN)NC(=O)[C@H](CCCCN)NC(=O)Cc1ccccc1)C(=O)O [inhibitor 28, Phac-Lys-Lys-Arg-OH] (HELM PEPTIDE1{[O=C(Cc1ccccc1)[*:2]].K.K.R}$$$$V2.0) | – | 27 | – | – |
| Cyclohexylacetic acid-Lys-Lys-Arg-NH2 (peptide) | – | – | 4.8 | – |
| N=C(N)NCCC[C@H](NC(=O)[C@H](CCCCN)NC(=O)[C@H](CCCCN)NC(=O)Cc1ccc(O)cc1)C(N)=O [inhibitor 33] | 27.5 | 0.54 | – | – |
| N=C(N)NCCC[C@H](NC(=O)[C@H](CCCCN)NC(=O)[C@H](CCCCN)NC(=O)Cc1ccc(Cl)c(Cl)c1)C(N)=O [inhibitor 29] | 25.1 | 1.13 | – | – |
| N=C(N)NCCC[C@H](NC(=O)[C@H](CCCCN)NC(=O)[C@H](CCCCN)NC(=O)Cc1ccccc1)C(=O)NCCCCCC(N)=O [inhibitor 26] (HELM PEPTIDE1{[O=C(Cc1ccccc1)[*:2]].K.K.R.[O=C(CCCCCN[*:1])[*:2]].[am]}$$$$V2.0) | – | 17 | – | – |
| D/L-α-phenylglycine-Lys-Lys-Arg-NH2 (peptide) | – | – | 3.6 | – |
| Phac-Lys-Lys-Arg-Gly-NH2 (peptide) | – | – | 2.56 | – |
| 3-AMe-Phac-Lys-Lys-Arg-NH2 (peptide) | – | – | 0.36 | – |
| N=C(N)NCCC[C@H](NC(=O)[C@H](CCCCN)NC(=O)[C@H](CCCCN)NC(=O)Cc1ccccc1)C(=O)NCC(=O)NCC(N)=O [inhibitor 17] (HELM PEPTIDE1{[O=C(Cc1ccccc1)[*:2]].K.K.R.G.G.[am]}$$$$V2.0) | 35.1 | 1.56 | – | – |
| N=C(N)NCCC[C@H](NC(=O)[C@H](CCCCN)NC(=O)[C@H](CCCCN)NC(=O)CC1CCCCC1)C(N)=O [inhibitor 41] | 36.7 | 4.8 | – | – |
| 1-Adamantylacetic acid-Lys-Lys-Arg-NH2 (peptide) | – | – | 13.8 | – |
| CC(C)(C)[C@H](NC(=O)[C@H](CCCNC(=N)N)NC(=O)[C@H](CCCCN)NC(=O)[C@H](CCCCN)NC(=O)Cc1ccccc1)C(N)=O [inhibitor 22] (HELM PEPTIDE1{[O=C(Cc1ccccc1)[*:2]].K.K.R.[CC(C)(C)[C@H](N[*:1])C(=O)[*:2]].[am]}$$$$V2.0) | 6.4 | 140 | – | – |
| N=C(N)NCCC[C@H](NC(=O)[C@H](CCCCN)NC(=O)[C@H](CCCCN)NC(=O)Cc1ccc(-c2ccccc2)cc1)C(N)=O [inhibitor 34] | 27.1 | 0.53 | – | – |

| Molecule | inhibition at 100 µM [1] [%] | Ki (WNV NS2B-NS3 protease) [µM] | Ki [2] [µM] | further results |
| --- | --- | --- | --- | --- |
| Phac-Lys-Lys-Arg-NH2 (peptide) | – | – | 2.47 | – |
| Phac-Lys-Lys-Arg-DAla-NH2 (peptide) | – | – | 75 | – |
| N=C(N)NCCC[C@H](NC(=O)[C@H](CCCCN)NC(=O)[C@H](CCCCN)NC(=O)Cc1cccc(CNC(=N)N)c1)C(N)=O [inhibitor 37] | 32.3 | 0.18 | – | – |
| 3,4-Cl2-Phac-Lys-Lys-Arg-Gly-NH2 (peptide) | – | – | 1.8 | – |
| N=C(N)NCc1ccc(CC(NC(=O)Cc2ccccc2)C(=O)NC(CCCCN)C(=O)NCC2CCC(NC(=N)N)CC2)cc1 (stereo not drawn) [inhibitor 9] | – | 44 | – | – |
| CN(CC(N)=O)C(=O)[C@H](CCCNC(=N)N)NC(=O)[C@H](CCCCN)NC(=O)[C@H](CCCCN)NC(=O)Cc1ccccc1 [inhibitor 24] (HELM PEPTIDE1{[O=C(Cc1ccccc1)[*:2]].K.K.R.[Sar].[am]}$$$$V2.0) | 3.2 | 50 | – | – |
| 3,4-(Methylenedioxy)-Phac-Lys-Lys-Arg-NH2 (peptide) | – | – | 0.68 | – |
| 3-NH2-Phac-Lys-Lys-Arg-NH2 (peptide) | – | – | 1.2 | – |
| Phac-Lys-Lys-Arg-Tle-NH2 (peptide) | – | – | 140 | – |
| N=C(N)NCCC[C@H](NC(=O)[C@H](CCCCN)NC(=O)[C@H](CCCCN)NC(=O)CC12CC3CC(CC(C3)C1)C2)C(N)=O [inhibitor 43] | 24.2 | 13.8 | – | – |
| 4-OH-Phac-Lys-Lys-Arg-NH2 (peptide) | – | – | 0.54 | – |
| 4-AMe-Phac-Lys-Lys-Arg-NH2 (peptide) | – | – | 0.38 | – |
| 3-GMe-Phac-Lys-Lys-Arg-NH2 (peptide) | – | – | 0.18 | – |
| Phac-Lys-Lys-Arg-Pro-NH2 (peptide) | – | – | 200 | – |
| Phac-Lys-Lys-Arg-Aca-NH2 (peptide) | – | – | 17 | – |
| N=C(N)NCCC[C@H](NC(=O)[C@H](CCCCN)NC(=O)[C@H](CCCCN)NC(=O)C(N)C1CCCCC1)C(N)=O (stereo partly drawn) [inhibitor 42] (HELM PEPTIDE1{[NC(C(=O)[*:2])C1CCCCC1].K.K.R.[am]}$$$$V2.0) | 31.7 | – | – | – |
| N=C(N)NCCC[C@H](NC(=O)[C@H](CCCCN)NC(=O)[C@H](CCCCN)NC(=O)Cc1ccccc1)C(=O)NCCCC(N)=O [inhibitor 25] (HELM PEPTIDE1{[O=C(Cc1ccccc1)[*:2]].K.K.R.[O=C(CCCN[*:1])[*:2]].[am]}$$$$V2.0) | 26.3 | 15 | – | – |
| 1-Adamantylglycine-Lys-Lys-Arg-NH2 (peptide) | – | – | 70 | – |
| 4-GMe-Phac-Lys-Lys-GCMA | – | 0.23 | – | Ki ([1]; DENV-2 NS2B-NS3 construct, substrate Phac-Lys-Arg-Arg-AMC, Dixon plots): 67 µM |
| 3,4-Cl2-Phac-Lys-Lys-Arg-NH2 (peptide) | – | – | 1.13 | – |
| AC-D/L-α-phenylglycine-Lys-Lys-Arg-NH2 (peptide) | – | – | 4.18 | – |
| Phac-Lys-Lys-Arg-Sar-NH2 (peptide) | – | – | 50 | – |
| 4-Phenyl-Phac-Lys-Lys-Arg-NH2 (peptide) | – | – | 0.53 | – |
| B1 | – | – | 1.56 | – |
